Data from patent US9328369B2, “Process for production of useful substance, and surfactant for use in the process” (priority 2009, dated 2016).

Tests used:
Type in all cases: cell-based
Escherichia coli (α) = assay: Screening of secretion efficiency, alkaline phosphatase expressing strain; conditions: surfactant 1 wt %; 37° C., 1 hour; ELISA, anti-His-tag antibody
From the text: An alkaline phosphatase (phoA) gene of an Escherichia coli strain W3110 was amplified by the PCR method using primers 1 and 2 (Table 4). After being treated with restriction enzymes NdeI and BamHI, a PCR fragment was bound with an NdeI restriction enzyme site and with a BamHI restriction enzyme site of a pET-22b plasmid (product of Novagen). Then, the plasmid was transformed into an AG1 (DE3) Escherichia coli strain formed by transforming an Escherichia coli strain AG1 (product of TOYOBO Co., LTD.) with use of a λDE3 Lysogenization Kit (product of Novagen). In this manner, an alkaline phosphatase expressing strain (a) was formed.
(§1) A pdxA gene of an Escherichia coli strain W3110 was amplified by the PCR method using primers 5 and 6 (Table 4). After being treated with restriction enzymes NdeI and BamHI, a PCR fragment was bound to an NdeI restriction enzyme site and a BamHI restriction enzyme site of a pET-22b plasmid (product of Novagen). Then, the plasmid was transformed into an AG1 (DE3) Escherichia coli strain to form a PdxA expressing strain (γ).
In this manner, culture solutions were prepared.
(2) The strains were collected using a centrifuge (4,000 G, 4° C., 15 minutes). Each of the collected Escherichia coli strains was resuspended in 1 mL of a TB culture solution (product of Difco) and chloramphenicol (30 mg/L) and IPTG (100 μM) were added thereto. Shake culture at 37° C. for 3 hours induced expression of phoA, torA, and pdxA.
(3) Subsequently, harvesting using a centrifuge was carried out again (4,000 G, 4° C., 15 minutes). Each of the collected Escherichia coli strains was resuspended in 2.5 mL of a Tris-NaCl buffer solution (50 mM Tris (pH 7.5), 100 mM NaCl). The resulting solution was divided into 25-μL portions at a time to be mixed with 25 μL of a Tris-NaCl buffer solution.
(4) Then, the solution was allowed to stand at 37° C. for 1 hour. The supernatant solution was collected and diluted in a Tris-NaCl buffer solution to a proper concentration. Here, the quantification of the recombinant protein in the resulting solution was carried out by ELISA assay with use of an anti-His-tag antibody. The sample prior to the centrifugation in the process (3) was treated with ultrasonic waves (200 W, 10 minutes) and the quantification of the recombinant protein therein was similarly carried out by ELISA assay with use of an anti-His-tag antibody. The ratio of lysed bacteria was obtained with use of Escherichia coli (γ), and the secretion efficiencies of the recombinant proteins of Escherichia coli (α) and (β) were calculated by using the following formula. […] Secretion efficiency (%)=100×{(X/Y)−Z}.
In the formula, “X” represents the amount of the recombinant protein in the culture solution after removal of bacterial cells by centrifugation in the case of using Escherichia coli (α) or (β).
“Y” represents the amount of the whole recombinant protein in the culture solution in the case of using Escherichia coli (α) or (β).
“Z” represents the ratio of lysed bacteria obtained with use of Escherichia coli (γ), which is determined by the following formula: Z=Z1/Z2.
In the formula, “Z1” represents the amount of the recombinant protein in the culture solution which remains after removal of bacterial cells by centrifugation in the case of using Escherichia coli (γ).
“Z2” represents the amount of the whole recombinant protein in the culture solution in the case of using Escherichia coli (γ).
Escherichia coli (α) and (β) were each cultured in the same manner as in the above case except that polyoxyethylene (3 mol) tridecyl ether sodium acetate as the surfactant (A) was added right after the resuspension of the Escherichia coli in the buffer solution in the process (3) of A-0, in an amount of 1% by weight on the basis of the weight of the suspension of the bacterium. The secretion efficiency was calculated according to the above-mentioned definition.

Escherichia coli(δ) [1] = assay: Production by secretion in microbial culture system, cellulase expressing strain (Table 5); set-up: key to Turbidity: (measured turbidity of diluted culture − blank) × dilution rate; conditions: Examples 2-11, surfactant 1 wt %; for Dried cell density: at termination of culturing, obtained from turbidity; for Turbidity: culturing terminated after 48 hours
Method: A bglC gene of Bacillus licheniformis was amplified by the PCR method using primers 9 and 10 (Table 4). After being treated with restriction enzymes NcoI and BamHI, a PCR amplified fragment was bound to an NcoI restriction enzyme site and a BamHI restriction enzyme site of a pET-22b plasmid (product of Novagen). Then, the plasmid was transformed into a BL21 (DE3) Escherichia coli strain (product of Novagen) to form Escherichia coli […] that expresses cellulase.
Overnight cultures (1 ml) of Escherichia coli (δ) obtained in Production Example 4 and Escherichia coli (ε) obtained in Production Example 5 were respectively prepared as Comparative Example 2 and Comparative Example 4. An amount of 0.5 ml of each was inoculated in 5 ml of an LB culture solution (containing 100 mg/L of ampicillin) and was shake-cultured at 30° C. for 3 hours. In this manner, pre-culture solutions were prepared. The pre-culture solutions were each inoculated in 50 mL of a culture solution (1.2 g of yeast extract (Nihon Pharmaceutical Co., Ltd.), 0.6 g of polypeptone (Nihon Pharmaceutical Co., Ltd.), 0.47 g of dipotassium phosphate, 0.11 g of monopotassium phosphate, 0.35 g of ammonium sulfate, 0.66 g of disodium phosphate 12-hydrate, 0.02 g of sodium citrate dihydrate, 0.2 g of glycerol, 1.5 g of lactalbumin hydrolysate, 0.3 g of a defoaming agent (Shin-Etsu Chemical Co., Ltd., “KM-70”), 1 mM magnesium sulfate, trace metal solution (18.9 μg of calcium chloride, 500 μg of iron chloride (III), 9.0 μg of zinc sulfate heptahydrate, 5.1 μg of copper sulfate, 6.7 μg of manganese chloride tetrahydrate, 4.9 μg of cobalt chloride, 200 μg of ethylene-diamine-tetraacetic acid tetrasodium salt), 100 mg/L ampicillin). Culturing was initiated with use of a microbial culture system (ABLE Corporation, product name “BioJr. 8”), while the pH value and the temperature were maintained at 6.8 and 30° C. After the culturing was initiated, 0.15 mL of 1M IPTG was added. After 14 hours from the initiation of culturing, instillation of a glycerin/protein solution (50% of glycerin, 50 g/L of lactalbumin hydrolysate, a 33 g/L defoaming agent (Shin-Etsu Chemical Co., Ltd., “KM-70”), 100 mg/L ampicillin) was started. The culturing was terminated after 48 hours from the initiation and the culture solution was recovered. The whole protein in the culture solution was analyzed by SDS-PAGE. Based on the obtained amount of the protein band, the recombinant protein was quantified.
The dried cell density at the termination of the culturing was determined by the following processes (1) to (5):
The dried cell density was determined by applying the measuring results in the process (5) and the process (1) and the volume (L) of the culture solution used in the process (2) to the following formula: Dried cell density (g/L)=([measuring result in process (5)]−[measuring result in process (1)])/0.1.
Performance of this processes for several times clarified the proportional relationship between the turbidity of the culture solution and the dried cell density. Therefore, the dried cell density was obtained from the measured turbidity in each of Comparative Examples 2 to 4 and Examples 2 to 14.
The turbidity of a culture solution that is same as the culture solution used in the measurement of the dried cell density was measured using a turbidimeter (Shimadzu Corporation, UV-1700) and 1 ml of quarts cell.
For measurement, the culture solution was diluted in saline to have an appropriate absorbance. The absorbance of the same culture solution (but not containing bacteria) diluted at the same dilution as above was set as a blank. The turbidity of the culture solution was calculated by using the following formula: Turbidity of culture solution=[(measured turbidity of diluted culture solution)−(measured turbidity of blank)]×dilution rate.
The dried cell density and the turbidity of the culture solution were plotted to construct a graph in FIG. 3. […]

Escherichia coli(δ) [2] = assay: as above; conditions: Examples 2-11; surfactant 1 wt %; supernatant of culture solution, SDS-PAGE
Escherichia coli (β) = assay: Screening of secretion efficiency, TorA expressing strain; conditions: surfactant 1 wt %; 37° C., 1 hour; ELISA, anti-His-tag antibody
From the text: as §1, with “torA” for “pdxA”, “3” for “5”, “4” for “6”, “TorA” for “PdxA”, “(β). Localization of the expressed TorA in a periplasmic fraction was confirmed by conducting an analysis based on the method disclosed in page 121 of Vol. 353 of METHODS IN ENZYMOLOGY (2002).” for “(γ).”
as §1, with “(γ). Localization of the expressed PdxA in a cytoplasmic compartment was confirmed by conducting an analysis based on the method disclosed in page 121 of Vol. 353 of METHODS IN ENZYMOLOGY (2002). […]” for “(γ).”
(4) Then, the solution was allowed to stand at 37° C. for 1 hour. […] Here, the quantification of the recombinant protein in the resulting solution was carried out by ELISA assay with use of an anti-His-tag antibody. The sample prior to the centrifugation in the process (3) was treated with ultrasonic waves (200 W, 10 minutes) and the quantification of the recombinant protein therein was similarly carried out by ELISA assay with use of an anti-His-tag antibody. The ratio of lysed bacteria was obtained with use of Escherichia coli (γ), and the secretion efficiencies of the recombinant proteins of Escherichia coli (α) and (β) were calculated by using the following formula. […]
“Z” represents the ratio of lysed bacteria obtained with use of Escherichia coli (γ), which is determined by the following formula: Z=Z1/Z2. […]

Sodiumt polyoxyethylene (3 mol) laurylether acetate [A-9]
Secretion efficiency (%) Escherichia coli (α) (Escherichia coli (α)): 63.3%
Dried cell density (Escherichia coli(δ) [1]): 14.2 g/L
Turbidity (Escherichia coli(δ) [1]): 50.7
Quantitative value of produced recombinant protein (Escherichia coli(δ) [2]): 1.35 g/L

Palm oil fatty acid amide propyl dimethyl amino acetate betaine [A-3]
Secretion efficiency (%) Escherichia coli (α) (Escherichia coli (α)): 91.3%
Secretion efficiency (%) Escherichia coli (β) (Escherichia coli (β)): 93.6%

CCCCCCCCCCCC(=O)NCCN(CCO)CC(=O)O.[Na] [A-13, Sodium N-lauroyl-N′-carboxymethyl-N′-hydroxyethyl ethylenediamine]
Secretion efficiency (%) Escherichia coli (α) (Escherichia coli (α)): 46.6%
Dried cell density (Escherichia coli(δ) [1]): 21.4 g/L
Turbidity (Escherichia coli(δ) [1]): 76.4
Quantitative value of produced recombinant protein (Escherichia coli(δ) [2]): 1.79 g/L

CCCCCCCCCCCC[N+](C)(C)CC(=O)[O-] [A-5, Lauryl dimethylamino acetate betaine]
Secretion efficiency (%) Escherichia coli (α) (Escherichia coli (α)): 87.8%
Dried cell density (Escherichia coli(δ) [1]): 23.8 g/L
Turbidity (Escherichia coli(δ) [1]): 85
Quantitative value of produced recombinant protein (Escherichia coli(δ) [2]): 2.58 g/L
